# From US8436189B2, “Heterocyclic alkanol derivatives” (Bayer Intellectual Property GmbH, priority 2010, dated 2013)
# Assays:
# [1] = log P by HPLC on reversed-phase columns (C18), EEC Directive 79/831 Annex V.A8; assay type: physicochemical; details: method [a]: LC-MS, acidic range, pH 2.7, 0.1% aqueous formic acid / acetonitrile, gradient 10% to 95% acetonitrile
# Method: The log P values were measured in accordance with EEC Directive 79/831 Annex V.A8 by HPLC (High Performance Liquid Chromatography) using reversed-phase columns (C18) by the following methods: [a] The LC-MS determination in the acidic range is effected at pH 2.7 with 0.1% aqueous formic acid and acetonitrile (contains 0.1% formic acid) as eluents; linear gradient from 10% acetonitrile to 95% acetonitrile.
# [2] = tested on: Puccinia triticina; experiment: Puccinia triticina test (wheat)/protective; assay type: in vivo; details: protective spray, application rate 500 ppm, evaluation 8 days after inoculation, 0% = control, 100% = no infection
# Method: (§1) Solvent: 49 parts by weight of N,N-dimethylacetamide
# (§2) Emulsifier: 1 part by weight of alkylaryl polyglycol ether
# (§3) To produce an appropriate active ingredient formulation, 1 part by weight of active ingredient is mixed with the specified amounts of solvent and emulsifier, and the concentrate is diluted with water to the desired concentration. To test for protective activity, young plants are sprayed with the formulation of active ingredient at the stated application rate. After the spray coating has dried on, the plants are sprayed with spores with a spore suspension of Puccinia triticina. The plants remain in an incubation cabin at 20° C. and 100% relative air humidity for 48 hours. The plants are placed in a greenhouse at a temperature of about 20° C. and a relative air humidity of about 80%. Evaluation follows 8 days after the inoculation. 0% means an efficacy which corresponds to that of the control, whereas an efficacy of 100% means that no infection is observed. In this test, the following inventive compounds, at an active ingredient concentration of 500 ppm, show an efficacy of 70% or more.
# [3] = tested on: Leptosphaeria nodorum; experiment: Leptosphaeria nodorum test (wheat)/protective; assay type: in vivo; details: protective spray, application rate 500 ppm, evaluation 8 days after inoculation, 0% = control, 100% = no infection
# Method: as §1, §2
# as §3, with “of Leptosphaeria nodorum.” for “of Puccinia triticina.”, “about 22°” for “about 20°”
# [4] = tested on: Blumeria graminis f sp. hordei; experiment: Blumeria graminis test (barley)/protective; assay type: in vivo; details: protective spray, application rate 500 ppm, evaluation 7 days after inoculation, 0% = control, 100% = no infection
# Method: Solvent: 49 parts by weight of N,N-dimethylacetamide Emulsifier: 1 part by weight of alkylaryl polyglycol ether To produce an appropriate active ingredient formulation, 1 part by weight of active ingredient is mixed with the specified amounts of solvent and emulsifier, and the concentrate is diluted with water to the desired concentration. To test for protective activity, young plants are sprayed with the formulation of active ingredient at the stated application rate. After the spray coating has dried on, the plants are dusted with spores of Blumeria graminis f sp. hordei. The plants are placed in a greenhouse at a temperature of about 18° C. and a relative air humidity of about 80% to promote the development of mildew pustules. Evaluation follows 7 days after the inoculation. 0% means an efficacy which corresponds to that of the control, whereas an efficacy of 100% means that no infection is observed. In this test, the following inventive compounds, at an active ingredient concentration of 500 ppm, show an efficacy of 70% or more.
# [5] = tested on: Uromyces appendiculatus; experiment: Uromyces test (bean)/protective; assay type: in vivo; details: protective spray, application rate 100 ppm, evaluation 10 days after inoculation, 0% = control, 100% = no infection
# Method: (§4) Solvent: 24.5 parts by weight of acetone • 24.5 parts by weight of dimethylacetamide Emulsifier: 1 part by weight of alkylaryl polyglycol ether To produce an appropriate active ingredient formulation, 1 part by weight of active ingredient is mixed with the specified amounts of solvent and emulsifier, and the concentrate is diluted with water to the desired concentration. To test for protective activity, young plants are sprayed with the active ingredient formulation at the stated application rate. After the spray coating has dried on, the plants are inoculated with an aqueous spore suspension of the bean rust pathogen Uromyces appendiculatus and then remain in an incubation cabin at about 20° C. and 100% relative air humidity for 1 day. The plants are then placed in the greenhouse at about 21° C. and a relative air humidity of about 90%. Evaluation follows 10 days after the inoculation. 0% means an efficacy which corresponds to that of the control, whereas an efficacy of 100% means that no infection is observed. In this test, the following inventive compounds, at an active ingredient concentration of 100 ppm, show an efficacy of 70% or more.
# [6] = tested on: Venturia inaequalis; experiment: Venturia test (apple)/protective; assay type: in vivo; details: protective spray, application rate 100 ppm, evaluation 10 days after inoculation, 0% = control, 100% = no infection
# Method: as §4, with “aqueous conidia” for “aqueous spore”, “the apple scab” for “the bean rust”, “pathogen Venturia inaequalis” for “pathogen Uromyces appendiculatus”, “in a” for “in the”
logP [1],SMILES,further results
logP 3.88^[a]; [M + H]^+ = 416,Cc1cc(I)ccc1OCC(O)(c1cncs1)C1(C)CC1 (stereo not drawn) [compound 10],–
–,CC(C)(C)C(O)(COc1ccc(Br)cc1Cl)c1cncs1 (stereo not drawn) [Compound No. 2],Efficacy (%) [2]: 95%; Efficacy (%) [3]: 92%; Efficacy (%) [4]: 100%
logP 3.96^[a]; [M + H]^+ = 396.,CC(C)(C)C(O)(COc1ccc(SC(F)(F)F)c(F)c1)c1cncs1 (stereo not drawn) [compound 16],–
logP 4.14^[a]; [M + H]^+ = 438.,CC(C)(C)C(O)(COc1ccc(I)cc1Cl)c1cncs1 (stereo not drawn) [compound 5],–
–,CC(C)(C)C(O)(Cc1ccc(F)cc1F)c1cncs1 (stereo not drawn) [Compound No. 31],chromatographic logP ([1]; reversed-phase HPLC column (C18)): 3.04
logP 4.03^[a]; [M + H]^+ = 434,CC1(C(O)(COc2cc(Br)cc(Br)c2)c2cncs2)CC1 (stereo not drawn) [compound 7],–
logP 4.31^[a]; [M + H]^+ = 412.,CC(C)(C)C(O)(COc1ccc(SC(F)(F)F)c(Cl)c1)c1cncs1 (stereo not drawn) [compound 21],–
–,CC(C)(C)C(O)(COc1ccc(Br)cc1F)c1cncs1 (stereo not drawn) [Compound No. 3],Efficacy (%) [2]: 100%; Efficacy (%) [3]: 100%; Efficacy (%) [4]: 100%
logP 4.10^[a]; [M + H]^+ = 396.,CC(C)(C)C(O)(COc1ccc(OC(F)(F)F)cc1Cl)c1cncs1 (stereo not drawn) [compound 29],–
logP 3.37^[a]; [M + H]^+ = 330.,CC(C)(C)C(O)(COc1ccc(Cl)cc1F)c1cncs1 (stereo not drawn) [compound 26],–
logP 3.70^[a]; [M + H]^+ = 392.,COc1cc(OC(F)(F)F)ccc1OCC(O)(c1cncs1)C(C)(C)C (stereo not drawn) [compound 14],–
logP 3.96^[a],CC(C)(C)C(O)(COc1ccc(Cl)cc1C(F)(F)F)c1cncs1 (stereo not drawn) [compound 37],–
logP 3.74^[a]; [M + H]^+ = 326.,Cc1cc(OCC(O)(c2cncs2)C(C)(C)C)ccc1Cl (stereo not drawn) [compound 27],–
logP 4.12^[a],Cc1cc(OC(F)(F)F)ccc1OCC(O)(c1cncs1)C(C)(C)C (stereo not drawn) [compound 42],–
logP 3.63^[a]; [M + H]^+ = 338.,CSc1ccc(OCC(O)(c2cncs2)C(C)(C)C)cc1C (stereo not drawn) [compound 28],–
–,CC(C)(C)C(O)(COc1ccc(I)cc1F)c1cncs1 (stereo not drawn) [compound 1],Efficacy (%) [5]: 100%; Efficacy (%) [2]: 100%; Efficacy (%) [3]: 100%; Efficacy (%) [6]: 97%; Efficacy (%) [4]: 100%
logP 2.98^[a],CC(C)(C)C(O)(COc1ccc(F)cc1F)c1cncs1 (stereo not drawn) [compound 34],–

logP [1],SMILES,further results
logP 3.37^[a]; [M + H]^+ = 440.,COc1cc(S(=O)(=O)C(F)(F)F)ccc1OCC(O)(c1cncs1)C(C)(C)C (stereo not drawn) [compound 20],–
logP 4.12^[a],CC(C)(C)C(O)(COc1ccc(OC(F)(F)F)c(Br)c1)c1cncs1 (stereo not drawn) [compound 41],–
"logP 3.32^[a]; [M + H]+ = 372, 374",CC1(C(O)(COc2ccc(Br)cc2F)c2cncs2)CC1 (stereo not drawn) [compound 32],–
"logP 3.30^[a]; [M + H]^+ = 372, 374",CC1(C(O)(COc2ccc(Br)c(F)c2)c2cncs2)CC1 (stereo not drawn) [compound 12],–
logP 3.16^[a],COc1cc(OCC(O)(c2cncs2)C2(C)CC2)ccc1Br (stereo not drawn) [compound 36],–
logP 3.84^[a],CC(C)(C)C(O)(COc1ccc(Cl)cc1Cl)c1cncs1 (stereo not drawn) [compound 33],–
logP 3.11^[a]; [M + H]^+ = 447,CC1(C(O)(COc2ccc(I)c([N+](=O)[O-])c2)c2cncs2)CC1 (stereo not drawn) [compound 15],–
logP 4.43^[a]; [M + H]^+ = 392.,Cc1cc(SC(F)(F)F)ccc1OCC(O)(c1cncs1)C(C)(C)C (stereo not drawn) [compound 23],–
logP 3.77^[a]; [M + H]^+ = 326.,Cc1cc(Cl)ccc1OCC(O)(c1cncs1)C(C)(C)C (stereo not drawn) [compound 25],–
logP 1.90^[a]; [M + H]^+ = 354.,Cc1cc(OCC(O)(c2cncs2)C(C)(C)C)ccc1[S+](C)[O-] (stereo not drawn) [compound 18],–
logP 2.21^[a]; [M + H]^+ = 370.,Cc1cc(OCC(O)(c2cncs2)C(C)(C)C)ccc1S(C)(=O)=O (stereo not drawn) [compound 17],–
"logP 3.70^[a]; [M + H]^+ = 422, 424",CC1(C(O)(COc2ccc(Br)c(C(F)(F)F)c2)c2cncs2)CC1 (stereo not drawn) [compound 13],–
logP 3.26^[a],COc1cc(Br)ccc1OCC(O)(c1cncs1)C1(C)CC1 (stereo not drawn) [compound 35],–
logP 3.72^[a],CC(C)(C)C(O)(COc1ccc(Cl)c(Cl)c1)c1cncs1 (stereo not drawn) [compound 39],–
logP 4.35^[a]; [M + H]^+ = 392.,Cc1cc(OCC(O)(c2cncs2)C(C)(C)C)ccc1SC(F)(F)F (stereo not drawn) [compound 22],–
logP 3.63^[a]; [M + H]^+ = 424.,Cc1cc(S(=O)(=O)C(F)(F)F)ccc1OCC(O)(c1cncs1)C(C)(C)C (stereo not drawn) [compound 19],–
logP 4.02^[a]; [M + H]^+ = 396.,CC(C)(C)C(O)(COc1ccc(OC(F)(F)F)c(Cl)c1)c1cncs1 (stereo not drawn) [compound 24],–
